In ChEMBL document CHEMBL4359832, “Fragment-Based Discovery of Novel Potent Sepiapterin Reductase Inhibitors” (J Med Chem, 2019):

Assay: physchem
Conditions: buffer, pH 7.4

| Compound | logD |
| --- | --- |
| CC1Cc2ccccc2N1C(=O)c1c(O)cc(Cl)cc1Cl (stereo not drawn) | 3.5 |
| O=C(c1c(O)cc(Cl)cc1Cl)N1CCCC2(CCC2)C1 | 3.7 |
| COc1cc(Cl)cc(Cl)c1C(=O)N1CCC2(CCC2)C1 | 4 |
| O=C(c1ncc(Cl)cc1O)N1CCC2(CCC2)C1 | 4.9 |
| O=C(c1c(O)cc(Cl)cc1Cl)N1CCC(Cc2ccccc2)C1 (stereo not drawn) | 3.8 |
| O=C(c1c(O)cncc1Cl)N1CCC2(CCC2)C1 | 1.2 |
| O=C(c1c(O)cc(Cl)cc1Cl)N1CCC(c2cccnc2)C1 (racemic) | 1.7 |
| Cn1cc(C2CCN(C(=O)c3c(O)cc(Cl)cc3Cl)C2)cn1 (racemic) | 1.6 |
